According to patent US20240374635A1, “COMPOSITIONS AND METHODS” (Glasport Bio Limited, priority 2021, published 2024):
Where two headings read alike, the source gives them in different places.

How the values were obtained:
cattle = experiment: In vivo rumen ORP in cattle with ORP measurement bolus
Protocol: Experimental: An in vivo study was conducted to investigate the effect of feed additives of the invention on rumen ORP in cattle. The study involved administering an ORP measurement bolus to each cow to allow for an ORP reading to be recorded every 10 minutes, dividing the cattle into three groups: a control group (receiving feed without any feed additive of the invention), low dose (receiving 100 g CaO2 per day along with feed—with the additive being delivered at a single morning feeding) and a high dose group (receiving 200 g CaO2 per day along with feed—with the additive being delivered at a single morning feeding). The rumen was opened after approximately 450 hours.
The results of this study are given in FIG. 20 which charts the ORP level in the rumen (mV) over time measured at 10-minute intervals for the control group, the low-dose group, and the high-dose group respectively.
An average baseline ORP reading measured for the animals from the control group is about −440 mV. This average baseline ORP reading of about −440 mV may be useful to aid comparison between control ORP and increases in ORP due to the animals consuming the additive. After approximately 450 hours the rumen was opened and the ORP results after this time point should be disregarded.

adult ewes = test system: adult ewes
Protocol: A methane emission study was carried out to determine the impact of feeding different doses of the feed additive would have on enteric fermentation. […] Any refused concentrate/additive was recorded. Sheep then had ad libitum access to grass silage and water throughout the day, with the amount of silage eaten recorded for each animal.
Body weights of all animals were recorded at the start of the experiment (‘week 1’) and after 49 days (‘week 7’).
Methane emissions were recorded through use of Portable Accumulation Chambers (PAC). Briefly: these are sealed chambers in which individual animals remain for a 1 hour time period. During this time period methane, oxygen and carbon dioxide measurements are taken at 0 minutes, 25 minutes and 50 minutes. […] Animals were placed in the PAC on week 1 and […] as defined above. 12 adult ewes, at least 2 years old, were divided into 2 groupings of 6 sheep. One group received a 2.355 g dose of Urea-Hydrogen Peroxide (termed Group 1) per day and the other received a 4.71 g dose of Urea-Hydrogen Peroxide (termed Group 2) per day.
Control Group: Sheep were fed 0.5 kg of feed concentrate comprising animal feed, on a daily basis over a 7 week period.
Treatment Group 1 (UHP 0.5X): Sheep were fed 0.5 kg of feed concentrate comprising the same animal feed as the control group and 0.15% (by weight) of urea hydrogen peroxide, on a daily basis over a 7 week period.
Treatment Group 2 (UHP 1X): Sheep were fed 0.5 kg of feed concentrate comprising the same animal feed as the control group and 0.3% (by weight) of urea hydrogen peroxide, on a daily basis over a 7 week period.

[1] = for Average Weight Gain: day 1 to day 49; for Average Daily DMI: group average; for Gain:Feed Ratio: group basis; for Average Finishing Weight / Average Starting Weight: group of 20 sheep
Protocol: Experimental: A study was conducted to determine what impact consumption of the feed additives would have on animal performance. It is estimated that between 2-12% of the energy content of animal feed is lost through enteric fermentation. This study examined whether though potential reductions in enteric fermentation additional energy would be diverted to the animal, with this being seen via an improved feed:gain metric, that is the ability of the animal to improve the rate of increase in its body weight per unit of feed eaten. 60 adult ewes (average starting body weight of approximately 80 kg) were divided into 3 equal groups of 20 sheep per group. Animals were fed as described in the Animal Study—Methane Emissions above. Animals were grouped into a control group (no feed additive given); treatment group 1 (2.355 g Urea-Hydrogen Peroxide given daily); treatment group 2 (4.71 g Urea-Hydrogen Peroxide given daily).
Animals were weighed at the start of the experiment (day 1) and at the end of the study (day 49). All feed (DMI) consumed was weighed and recorded throughout the study.
A feed:gain ratio was calculated as follows: […]
The ratio of weight gain to DMI was then calculated to determine the feed efficiency of each animal.

[2] = Treatment Group 1, 2.355 g UHP per day
[3] = Treatment Group 1, 2.355 g UHP per day, Week 1
[4] = Treatment Group 1, 2.355 g UHP per day, Week 7
[5] = Treatment Group 2, 4.71 g UHP per day
[6] = Treatment Group 2, 4.71 g UHP per day, Week 1
[7] = Treatment Group 2, 4.71 g UHP per day, Week 7

[Ca+2].[O-][O-] [CaO2, calcium peroxide]
increase of ORP in the rumen after each morning feed (cattle; 100 g or 200 g CaO2 per day with feed, sustained period of at least one hour): at least +100 mV
initial period (correction phase) of the ORP profile (cattle; 100 g or 200 g CaO2 per day, temporary reductions below baseline between administrations): 300 to 350 h

NC(N)=O.OO [urea hydrogen peroxide]
CH4/BW Difference week 7 versus week 1 (adult ewes; [2]): 11.24%
CH4/day Difference week 7 versus week 1 (adult ewes; [2]): 5.828%
CH4/BW (group mean) (adult ewes; [3]): 0.3705 litres of methane per kg of animal body weight
CH4/day (group mean) (adult ewes; [3]): 29.32
CH4/BW (group mean) (adult ewes; [4]): 0.3288 litres of methane per kg of animal body weight
CH4/day (group mean) (adult ewes; [4]): 27.61
CH4/BW Difference week 7 versus week 1 (adult ewes; [5]): 22.61%
CH4/day Difference week 7 versus week 1 (adult ewes; [5]): 18.04%
CH4/BW (group mean) (adult ewes; [6]): 0.3753 litres of methane per kg of animal body weight
CH4/day (group mean) (adult ewes; [6]): 29.82
CH4/BW (group mean) (adult ewes; [7]): 0.2905 litres of methane per kg of animal body weight
CH4/day (group mean) (adult ewes; [7]): 24.44
methane production by week 7 (adult ewes; treatment groups, feed concentrate comprising urea hydrogen peroxide): significant decrease in methane production
Average Weight Gain ([1]; Treatment 1, 2.355 g UHP daily): 5.65 kg
Average Daily DMI ([1]; Treatment 1, 2.355 g UHP daily): 1.6345 kg
Gain:Feed Ratio ([1]; Treatment 1, 2.355 g UHP daily): 0.0864
Average Finishing Weight ([1]; Treatment 1, 2.355 g UHP daily): 82.55 kg
Average Starting Weight ([1]; Treatment 1, 2.355 g UHP daily): 76.9 kg
Average Weight Gain ([1]; Treatment 2, 4.71 g UHP daily): 6.325 kg
Average Daily DMI ([1]; Treatment 2, 4.71 g UHP daily): 1.516 kg
Gain:Feed Ratio ([1]; Treatment 2, 4.71 g UHP daily): 0.1043
Average Finishing Weight ([1]; Treatment 2, 4.71 g UHP daily): 81.275 kg
Average Starting Weight ([1]; Treatment 2, 4.71 g UHP daily): 74.95 kg
weight gain versus control group ([1]; treatment groups): gained more weight on average than the control group
